The assay addresses STAT3 (Homo sapiens, UniProt P40763). Kind of assay: Quantitation of STAT3 degradation in A549 cells by Western blot. Format: cell-based. The following applies: read-out: A549 DC50, 24 hours, tested up to 30 μM or 10 μM. Details: expressed in transfected cells; host or cells: A549. The method, then:
Degradation of total cellular STAT3 protein in A549 was quantitatively measured using SDS-PAGE and Western blot analysis. A549 cells (5×10^5 cells/well, 2 mL) were seeded into 6-well plates and were incubated in the incubator under 5% CO2 overnight to reach ˜80% confluency. The next day, the culture medium was changed with 1 ml fresh media. Then, 1 mL of media containing 2× compound solution was added into the well to make the final concentration of 30 μM, 10 μM, 3 μM, 1 μM, 0.3 μM and 0 μM (DMSO). The media was thoroughly mixed and incubated for 24 hours at 37° C. under 5% CO2. Then, the culture media was removed from the assay plates and the cells were washed with ice-cold PBS twice. To prepare cell lysates, 200 ul pre-chilled RIPA lysis buffer (Boston BioProducts BP-115D) with protease/phosphatase inhibitor (Roche 05892791001/Roche 04906837001) was added directly into the well to lyse the cells for 20 minutes on ice. The cell lysates were then transferred to centrifuge tubes. Insoluble part of lysates was removed by centrifuging the lysates at 13000 rpm for 20 minutes. The supernatant was then collected and mixed with 5× loading buffer (Beyotime Bio P0015) to make the final samples for SDS-PAGE analysis. The samples were heated at 100° C. for 10 minutes and cool to room temperature before centrifuging at 13000 rpm for 20 minutes. To analyze the samples by SDS-PAGE, 10 ul samples were loaded onto SDS-PAGE gel (Novex, WG1403BOX) and the SDS-PAGE gel was run for 20 minutes at 80 V, then at 120 V for 1.5 hours. The SDS-PAGE gel was then transferred to nitrocellulose membrane using the wet-transfer method at 250 mA for 1.5 hours. The membrane was then blocked with LI-COR blocking buffer (LI-COR, 927-50000) for 1 hour and was probed with primary antibody (mouse anti-STAT3 (124H6) (CST #91395) 1:2000 or mouse anti-beta-Actin (8H10D10) (CST #3700) 1:10000) at 4° C. overnight. The membrane was then washed three times with TBST buffer and probed with secondary antibody (anti-mouse IgG (LI-COR, 926-68070), 1:5000) for 1 hour at room temperature. The membrane was then scanned on a LI-COR Odyssey instrument and was quantified using Image Studio Version 5.2. Concentration at 50% degradation (DC50) was calculated by fitting dose dependent degradation data using a sigmoidal equation using GraphPad Prism Version 8.0.
For orientation: A western blot detects proteins with antibodies after separation by electrophoresis.

What is called DC50 is the concentration giving 50% degradation.

Chain of STAT3 (P40763 whole entry): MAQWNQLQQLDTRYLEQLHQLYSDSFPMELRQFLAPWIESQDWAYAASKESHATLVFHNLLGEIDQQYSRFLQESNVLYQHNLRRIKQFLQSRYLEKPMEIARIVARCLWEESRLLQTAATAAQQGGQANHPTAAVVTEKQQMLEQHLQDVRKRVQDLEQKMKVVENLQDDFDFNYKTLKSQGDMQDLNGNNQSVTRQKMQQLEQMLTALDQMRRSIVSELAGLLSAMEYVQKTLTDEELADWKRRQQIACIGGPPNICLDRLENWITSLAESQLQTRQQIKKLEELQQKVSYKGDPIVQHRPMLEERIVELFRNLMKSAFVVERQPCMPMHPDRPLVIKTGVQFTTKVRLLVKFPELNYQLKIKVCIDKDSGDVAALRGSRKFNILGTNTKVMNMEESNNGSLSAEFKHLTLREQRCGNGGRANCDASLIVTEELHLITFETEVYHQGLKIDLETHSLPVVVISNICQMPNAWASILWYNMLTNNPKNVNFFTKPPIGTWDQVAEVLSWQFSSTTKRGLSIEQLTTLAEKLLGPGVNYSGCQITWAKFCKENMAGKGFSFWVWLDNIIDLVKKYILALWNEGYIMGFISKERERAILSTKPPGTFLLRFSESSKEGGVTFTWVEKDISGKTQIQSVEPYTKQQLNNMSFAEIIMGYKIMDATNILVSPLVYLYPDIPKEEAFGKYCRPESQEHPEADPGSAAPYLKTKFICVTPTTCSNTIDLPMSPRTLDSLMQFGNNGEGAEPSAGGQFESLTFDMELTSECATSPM

In the case of `C/C(=C\C(=O)N[C@H]1CN(C(=O)CCCCCCCc2ccc3c(c2)n(C)c(=O)n3C2CCC(=O)NC2=O)CC[C@H]2CC[C@@H](C(=O)N[C@@H](CCC(N)=O)C(=O)NC(c3ccccc3)c3ccccc3)N2C1=O)c1ccc(C(F)(F)P(=O)(O)O)cc1` (stereo partly drawn) [Compound I-113, [4-[(1E)-1-[[(5S,8S,10aR)-8-[[(1S)-3-carbamoyl-1-(diphenylmethylcarbamoyl)propyl]carbamoyl]-3-[8-[1-(2,6-dioxopiperidin-3-yl)-3-methyl-2-oxo-1,3-benzodiazol-5-yl]octanoyl]-6-oxo-octahydropyrrolo[1,2-a][1,5]diazocin-5-yl]carbamoyl]prop-1-en-2-yl]phenyl]difluoromethylphosphonic acid], the DC50 was > 30 µM.

`CCCC[C@H](NC(=O)/C=C(\C)c1ccc(C(F)(F)P(=O)(OCOC(=O)C(C)(C)C)OCOC(=O)C(C)(C)C)cc1)C(=O)N1C[C@H]2C[C@H]2[C@H]1C(=O)N[C@@H](CCC(N)=O)[C@@H](C)OCc1ccc(CCCNC(=O)COCCOCCCc2ccc3c(c2)n(C)c(=O)n3C2CCC(=O)NC2=O)cc1` (stereo partly drawn) [Compound I-58, [([4-[(1E)-1-[[(2S)-1-[(1R,2S,5S)-2-[[(3S,4R)-1-carbamoyl-4-[(4-[3-[2-(2-[3-[1-(2,6-dioxopiperidin-3-yl)-3-methyl-2-oxo-1,3-benzodiazol-5-yl]propoxy]ethoxy)acetamido]propyl]phenyl)methoxy]pentan-3-yl]carbamoyl]-3-azabicyclo[3.1.0]hexan-3-yl]-1-oxohexan-2-yl]carbamoyl]prop-1-en-2-yl]phenyl]difluoromethyl([(2,2-dimethylpropanoyl)oxy]methoxy)phosphoryl)oxy]methyl 2,2-dimethylpropanoate]: the DC50 is > 30 µM.

`C/C(=C\C(=O)N[C@H]1CCc2cccc3c2N(C1=O)[C@H](C(=O)NC(CCC(N)=O)[C@@H](C)OCc1ccc(CCCOCCOCCOCC(=O)N[C@H](C(=O)N2C[C@H](O)C[C@H]2C(=O)NCc2ccc(-c4scnc4C)cc2)C(C)(C)C)cc1)C3)c1ccc(C(F)(F)P(=O)(OCOC(=O)C(C)(C)C)OCOC(=O)C(C)(C)C)cc1` (some centres unmarked) [Compound I-33]: the DC50 is > 10 µM.

With `C/C(=C\C(=O)N[C@H]1CCc2cccc3c2N(C1=O)[C@H](C(=O)N[C@@H](CCC(N)=O)[C@@H](C)OCc1ccc(CCOCCOCCOCC(=O)N[C@H](C(=O)N2C[C@H](O)C[C@H]2C(=O)NCc2ccc(-c4scnc4C)cc2)C(C)(C)C)cc1)C3)c1ccc(C(F)(F)P(=O)(OCOC(=O)C(C)(C)C)OCOC(=O)C(C)(C)C)cc1` [Compound I-30], the DC50 is > 10 µM.

For `C/C(=C\C(=O)N[C@H]1CCc2cccc3c2N(C1=O)[C@H](C(=O)N[C@@H](CCC(N)=O)[C@@H](C)OCc1ccc(CCCOCCOCCOCCOc2cc(-c4scnc4C)ccc2CNC(=O)[C@@H]2C[C@@H](O)CN2C(=O)[C@@H](NC(=O)C2(F)CC2)C(C)(C)C)cc1)C3)c1ccc(C(F)(F)P(=O)(OCOC(=O)C(C)(C)C)OCOC(=O)C(C)(C)C)cc1` [Compound I-17], the DC50 is > 30 µM.

Take `C[C@@H](OCc1ccc(CCCCc2ccc3c(c2)n(C)c(=O)n3C2CCC(=O)NC2=O)cc1)[C@H](CCC(N)=O)NC(=O)[C@@H]1Cc2cccc3c2N1C(=O)[C@@H](NC(=O)c1cc2cc(C(=O)P(=O)(O)O)ccc2[nH]1)CC3` (some centres unmarked) [Compound I-84]: the DC50 is > 30 µM.

Regarding `Cc1ncsc1-c1ccc(CNC(=O)[C@@H]2C[C@@H](O)CN2C(=O)[C@@H](NC(=O)CCCC#Cc2ccc(CO[C@H](C)[C@H](CCC(N)=O)NC(=O)[C@@H]3Cc4cccc5c4N3C(=O)[C@@H](NC(=O)c3cc4cc(C(=O)P(=O)(O)O)ccc4[nH]3)CC5)cc2)C(C)(C)C)cc1` [Compound I-86], the DC50 was < 30 µM.

In the case of `C/C(=C\C(=O)N[C@H]1CCc2cccc3c2N(C1=O)[C@H](C(=O)N[C@@H](CCC(N)=O)[C@@H](C)OCc1ccc(CCCCCC(=O)N[C@H](C(=O)N2C[C@H](O)C[C@H]2C(=O)NCc2ccc(-c4scnc4C)cc2)C(C)(C)C)cc1)C3)c1ccc(C(F)(F)P(=O)(OCOC(=O)C(C)(C)C)OCOC(=O)C(C)(C)C)cc1` [Compound I-71], the DC50 is < 30 µM.

On to `C/C(=C\C(=O)N[C@H]1CCc2cccc3c2N(C1=O)[C@H](C(=O)N[C@@H](CCC(N)=O)[C@@H](C)OCc1ccc(CCCOCCCc2cccc4c2n(C)c(=O)n4C2CCC(=O)NC2=O)cc1)C3)c1ccc(C(F)(F)P(=O)(OCOC(=O)C(C)(C)C)OCOC(=O)C(C)(C)C)cc1` (stereo partly drawn) [Compound I-10, [([4-[(1E)-1-[[(2S,11S)-2-[[(3S,4R)-1-carbamoyl-4-[[4-(3-[3-[1-(2,6-dioxopiperidin-3-yl)-3-methyl-2-oxo-1,3-benzodiazol-4-yl]propoxy]propyl)phenyl]methoxy]pentan-3-yl]carbamoyl]-12-oxo-1-azatricyclo[6.4.1.0^[4,13]]trideca-4(13),5,7-trien-11-yl]carbamoyl]prop-1-en-2-yl]phenyl]difluoromethyl([(2,2-dimethylpropanoyl)oxy]methoxy)phosphoryl)oxy]methyl 2,2-dimethylpropanoate], for which the DC50 was > 30 µM.

For the compound `C/C(=C\C(=O)N[C@H]1CN(C(=O)CCCCCCc2ccc3c(c2)n(C)c(=O)n3C2CCC(=O)NC2=O)CC[C@H]2CC[C@@H](C(=O)N[C@@H](CCC(N)=O)C(=O)NC(c3ccccc3)c3ccccc3)N2C1=O)c1ccc(C(F)(F)P(=O)(O)O)cc1` (some centres unmarked) [Compound I-112], the DC50 was < 30 µM.

On to `C/C(=C\C(=O)N[C@H]1CCc2cccc3c2N(C1=O)[C@H](C(=O)N[C@@H](CCC(N)=O)[C@@H](C)OCc1ccc(C(=O)N[C@H](C(=O)N2C[C@H](O)CC2C(=O)NCc2ccc(-c4scnc4C)cc2)C(C)(C)C)cc1)C3)c1ccc(C(F)(F)P(=O)(OCOC(=O)C(C)(C)C)OCOC(=O)C(C)(C)C)cc1` (some centres unmarked) [Compound I-11], for which the DC50 is > 30 µM.

For the compound `Cn1c(=O)n(C2CCC(=O)NC2=O)c2ccc(C#CCCCCCC(=O)N3CC[C@H]4CC[C@@H](C(=O)N[C@@H](CCC(N)=O)C(=O)NC(c5ccccc5)c5ccccc5)N4C(=O)[C@@H](NC(=O)c4cc5cc(C(=O)P(=O)(O)O)ccc5[nH]4)C3)cc21` (stereo partly drawn) [Compound I-104, 2-[[(5S,8S,10aR)-8-[[(1S)-3-carbamoyl-1-(diphenylmethylcarbamoyl)propyl]carbamoyl]-3-[8-[1-(2,6-dioxopiperidin-3-yl)-3-methyl-2-oxo-1,3-benzodiazol-5-yl]oct-7-ynoyl]-6-oxo-octahydropyrrolo[1,2-a][1,5]diazocin-5-yl]carbamoyl]-1H-indole-5-carbonylphosphonic acid], the DC50 was < 30 µM.

Regarding `Cc1ncsc1-c1ccc(C2(NC(=O)[C@@H]3C[C@@H](O)CN3C(=O)[C@@H](NC(=O)CCCCc3ccc(CO[C@H](C)[C@H](CCC(N)=O)NC(=O)[C@@H]4Cc5cccc6c5N4C(=O)[C@@H](NC(=O)c4cc5cc(C(=O)P(=O)(O)O)ccc5[nH]4)CC6)cc3)C(C)(C)C)CC2)cc1` [Compound I-90, 2-[[(2S,11S)-2-[[(3S,4R)-1-carbamoyl-4-[[4-(4-[[(2S)-1-[(2S,4R)-4-hydroxy-2-([1-[4-(4-methyl-1,3-thiazol-5-yl)phenyl]cyclopropyl]carbamoyl)pyrrolidin-1-yl]-3,3-dimethyl-1-oxobutan-2-yl]carbamoyl]butyl)phenyl]methoxy]pentan-3-yl]carbamoyl]-12-oxo-1-azatricyclo[6.4.1.0^[4,13]]trideca-4(13),5,7-trien-11-yl]carbamoyl]-1H-indole-5-carbonylphosphonic acid], the DC50 is < 30 µM.

In the case of `Cn1c(C(=O)N[C@H]2CN(C(=O)CCCCCC#Cc3cccc4c3CN(C3CCC(=O)NC3=O)C4=O)CC[C@H]3CC[C@@H](C(=O)N[C@@H](CCC(N)=O)C(=O)NC(c4ccccc4)c4ccccc4)N3C2=O)cc2cc(C(=O)P(=O)(O)O)ccc21` (stereo partly drawn) [Compound I-102, diammonium 2-[[(5S,8S,10aR)-8-[[(1S)-3-carbamoyl-1-(diphenylmethylcarbamoyl)propyl]carbamoyl]-3-[8-[2-(2,6-dioxopiperidin-3-yl)-1-oxo-3H-isoindol-4-yl]oct-7-ynoyl]-6-oxo-octahydropyrrolo[1,2-a][1,5]diazocin-5-yl]carbamoyl]-1-methylindole-5-carbonylphosphonate], the DC50 is < 30 µM.

The values above are taken from patent publication US12077555B2, “STAT degraders and uses thereof” (Kymera Therapeutics, Inc., priority 2019, dated 2024).
